Measured values from the supplement of paper PMC10307832.

Assays:
Experiment in all cases: relative viability (nuclei count vs DMSO), 5 days (fraction); higher = more cells survive
[1] = compound: CN1CCN(c2ccc3nc(-c4c(N)c5c(F)cccc5[nH]c4=O)[nH]c3c2)CC1 [Dovitinib] + CS(=O)(=O)CCNCc1ccc(-c2ccc3ncnc(Nc4ccc(OCc5cccc(F)c5)c(Cl)c4)c3c2)o1 [Lapatinib] (partner 2 µM)
In short: (§1)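 Lung cancer cell lines, seeded in 1536-well plates, were treated the following day by pin tool with a single drug or with five library-drug doses (not always all listed) in √10 steps on top of a fixed anchor-drug dose. Cells were fixed and nuclei stained in one step after 5 days, and nuclei were counted. Relative viability is the nuclei count for treated wells divided by that for vehicle wells, reported as medians of duplicate plates.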

[2] = compound: CN1CCN(c2ccc3nc(-c4c(N)c5c(F)cccc5[nH]c4=O)[nH]c3c2)CC1 [Dovitinib] + Nc1ncn([C@H]2C[C@H](O)[C@@H](CO)O2)c(=O)n1 [Decitabine] (partner 2 µM)
In short: as §1

[3] = compound: CN1CCN(c2ccc3nc(-c4c(N)c5c(F)cccc5[nH]c4=O)[nH]c3c2)CC1 [Dovitinib] + NC(=O)Nc1cc(-c2cccc(F)c2)sc1C(=O)N[C@H]1CCCNC1 [AZD7762] (partner 0.2 µM)
In short: as §1

[4] = compound: CN1CCN(c2ccc3nc(-c4c(N)c5c(F)cccc5[nH]c4=O)[nH]c3c2)CC1 [Dovitinib] + CC(C)C[C@H](NC(=O)[C@H](Cc1ccccc1)NC(=O)c1cnccn1)B(O)O [Bortezomib] (partner 0.002 µM)
In short: as §1

| Cell Line | relative viability ([1]; first compound 0.02 µM) | relative viability ([1]; first compound 0.06325 µM) | relative viability ([1]; first compound 0.2 µM) | relative viability ([1]; first compound 0.6325 µM) | relative viability ([1]; first compound 2 µM) | relative viability ([2]; first compound 0.02 µM) | relative viability ([2]; first compound 0.06325 µM) | relative viability ([2]; first compound 0.2 µM) | relative viability ([2]; first compound 0.6325 µM) | relative viability ([2]; first compound 2 µM) | relative viability ([3]; first compound 0.02 µM) | relative viability ([3]; first compound 0.06325 µM) | relative viability ([3]; first compound 0.2 µM) | relative viability ([3]; first compound 0.6325 µM) | relative viability ([3]; first compound 2 µM) | relative viability ([4]; first compound 0.02 µM) | relative viability ([4]; first compound 0.06325 µM) | relative viability ([4]; first compound 0.2 µM) | relative viability ([4]; first compound 0.6325 µM) | relative viability ([4]; first compound 2 µM) |
| --- | --- | --- | --- | --- | --- | --- | --- | --- | --- | --- | --- | --- | --- | --- | --- | --- | --- | --- | --- | --- |
| LC-2-ad | 0.772 | 0.962 | 1.04 | 1.02 | 0.686 | 0.777 | 0.815 | 0.711 | 0.795 | 0.774 | 0.842 | 0.835 | 0.819 | 0.883 | 0.88 | 1.08 | 0.983 | 1.02 | 1.06 | 0.789 |
| LCLC-97TM1 | 0.835 | 0.752 | 1.02 | 0.602 | 1.03 | 0.188 | 0.118 | 0.203 | 0.217 | 0.206 | 0.247 | 0.239 | 0.298 | 0.395 | 0.315 | 0.754 | 0.783 | 0.371 | 0.867 | 0.566 |
| LCLC-103H |  |  |  |  |  | 0.722 | 0.775 | 0.75 | 0.758 | 0.739 | 0.777 | 0.802 | 0.784 | 0.704 | 0.699 | 1 | 1.07 | 1.01 | 0.987 | 1.13 |
| LOU-NH91 | 0.794 | 0.675 | 0.717 | 0.858 | 0.726 | 0.817 | 0.812 | 0.817 | 0.816 | 0.813 | 0.783 | 0.736 | 0.707 | 0.778 | 0.783 | 0.433 | 0.502 | 0.479 | 0.585 | 0.401 |
| LU99A | 0.943 | 0.985 | 1.08 | 0.937 | 0.922 | 0.759 | 0.762 | 0.965 | 0.981 | 0.904 | 0.294 | 0.469 | 0.358 | 0.277 | 0.387 | 1.15 | 1.08 | 0.987 | 1.05 | 1.32 |
| LXF-289 | 0.813 | 0.904 | 0.88 | 0.867 | 0.873 | 0.438 | 0.402 | 0.391 | 0.372 | 0.359 | 1.07 | 1.06 | 1.07 | 1.13 | 1.05 | 0.924 | 1 | 1.02 | 0.935 | 0.968 |
| NCI-H23 | 1.02 | 1.09 | 1.05 | 1.13 | 1.17 | 0.309 | 0.329 | 0.346 | 0.284 | 0.291 | 0.287 | 0.233 | 0.23 | 0.275 | 0.377 | 0.925 | 1.02 | 1.01 | 1.05 | 1.22 |
| NCI-H322M | 0.5 | 0.53 | 0.587 | 0.657 | 0.57 | 0.667 | 0.692 | 0.746 | 0.737 | 0.705 | 0.555 | 0.738 | 0.725 | 0.541 | 0.398 | 1.21 | 1.21 | 1.19 | 1.12 | 1.16 |
| NCI-H441 |  |  |  |  |  | 0.254 | 0.202 | 0.271 | 0.223 | 0.3 | 1.17 | 0.977 | 1.22 | 1.2 | 1.27 | 0.497 | 0.593 | 0.352 | 0.531 | 0.433 |
| NCI-H460 | 0.913 | 1.05 | 1 | 0.878 | 1.03 | 0.464 | 0.518 | 0.456 | 0.494 | 0.432 | 0.611 | 0.662 | 0.54 | 0.61 | 0.556 | 1.01 | 1.2 | 1.09 | 1.11 | 1.08 |
| NCI-H596 | 1.05 | 1.13 | 1.14 | 0.894 | 1 | 1.09 | 1.01 | 0.893 | 0.985 | 1.14 | 1.17 | 1.09 | 1 | 1.03 | 1.1 | 1.19 | 1.03 | 0.834 | 1.04 | 1.07 |
| NCI-H647 | 1.11 | 1.33 | 1.21 | 1.06 | 0.755 | 0.402 | 0.438 | 0.444 | 0.303 | 0.387 | 0.42 | 0.404 | 0.493 | 0.522 | 0.398 | 0.993 | 1.08 | 1.13 | 0.897 | 0.667 |
| NCI-H650 | 0.91 | 0.819 | 0.784 | 0.896 | 1.12 | 0.29 | 0.309 | 0.331 | 0.333 | 0.279 | 1.05 | 1.35 | 0.951 | 1.08 | 1 | 0.883 | 0.711 | 0.729 | 0.709 | 0.806 |
| NCI-H1395 | 1.01 | 0.879 | 1.08 | 1.04 | 1.12 | 0.719 | 0.668 | 0.747 | 0.713 | 0.696 | 0.425 | 0.366 | 0.435 | 0.374 | 0.398 |  |  |  |  |  |
| NCI-H1703 | 1.17 | 0.955 | 0.788 | 0.784 | 0.42 |  |  |  |  |  | 0.132 | 0.0996 | 0.125 | 0.114 | 0.146 | 0.47 | 0.335 | 0.18 | 0.328 | 0.291 |
| NCI-H1793 | 0.875 | 0.658 | 0.684 | 0.657 | 0.631 | 0.548 | 0.602 | 0.567 | 0.446 | 0.498 | 0.453 | 0.316 | 0.505 | 0.306 | 0.53 |  |  |  |  |  |
| NCI-H1944 | 0.84 | 0.809 | 0.893 | 0.7 | 0.818 | 0.388 | 0.374 | 0.455 | 0.454 | 0.434 | 0.564 | 0.788 | 0.531 | 0.523 | 0.475 |  |  |  |  |  |
| NCI-H2170 | 0.291 | 0.243 | 0.273 | 0.267 | 0.277 | 0.466 | 0.496 | 0.529 | 0.458 | 0.458 | 0.773 | 1.02 | 0.928 | 0.857 | 0.883 |  |  |  |  |  |
